Assay [1] has as its system PC-3M-Luc-C6 prostate cells. Description: In vitro PC-3M-Luc-C6 prostate cell proliferation assay in lipid reduced medium. It is filed as cell-based. Particulars: 96 h, read-out: pIC50 PC-3M-Luc-C6 prostate cell (converted).
Assay [2] deals with A2780 ovarian cells. Description: A2780 ovarian cell proliferation assay in lipid reduced medium, without palmitate (MTT). It is filed as cell-based. The settings on record: Homo sapiens, A2780, 96 h; read-out: pIC50 A2780 Ovarian Cell, Without Palmitate (converted).
For assay [3], the system named is LNCaP-Vancouver prostate cells. Put plainly: In vitro LNCaP Vancouver prostate cell proliferation assay in lipid reduced medium. It is filed as cell-based. The settings on record: read-out: pIC50 LNCaP_Vancouver prostate cell (converted).
For assay [4], the target named is Fatty Acid Synthase Keto-reductase Domain (FASN KR) (Homo sapiens, UniProt P49327). Put plainly: Fatty Acid Synthase keto-reductase domain (FASN KR) inhibition, NADPH oxidation at 340 nm.
Sequence of Fatty Acid Synthase Keto-reductase Domain (FASN KR) (P49327 whole entry, the tested form may be a part): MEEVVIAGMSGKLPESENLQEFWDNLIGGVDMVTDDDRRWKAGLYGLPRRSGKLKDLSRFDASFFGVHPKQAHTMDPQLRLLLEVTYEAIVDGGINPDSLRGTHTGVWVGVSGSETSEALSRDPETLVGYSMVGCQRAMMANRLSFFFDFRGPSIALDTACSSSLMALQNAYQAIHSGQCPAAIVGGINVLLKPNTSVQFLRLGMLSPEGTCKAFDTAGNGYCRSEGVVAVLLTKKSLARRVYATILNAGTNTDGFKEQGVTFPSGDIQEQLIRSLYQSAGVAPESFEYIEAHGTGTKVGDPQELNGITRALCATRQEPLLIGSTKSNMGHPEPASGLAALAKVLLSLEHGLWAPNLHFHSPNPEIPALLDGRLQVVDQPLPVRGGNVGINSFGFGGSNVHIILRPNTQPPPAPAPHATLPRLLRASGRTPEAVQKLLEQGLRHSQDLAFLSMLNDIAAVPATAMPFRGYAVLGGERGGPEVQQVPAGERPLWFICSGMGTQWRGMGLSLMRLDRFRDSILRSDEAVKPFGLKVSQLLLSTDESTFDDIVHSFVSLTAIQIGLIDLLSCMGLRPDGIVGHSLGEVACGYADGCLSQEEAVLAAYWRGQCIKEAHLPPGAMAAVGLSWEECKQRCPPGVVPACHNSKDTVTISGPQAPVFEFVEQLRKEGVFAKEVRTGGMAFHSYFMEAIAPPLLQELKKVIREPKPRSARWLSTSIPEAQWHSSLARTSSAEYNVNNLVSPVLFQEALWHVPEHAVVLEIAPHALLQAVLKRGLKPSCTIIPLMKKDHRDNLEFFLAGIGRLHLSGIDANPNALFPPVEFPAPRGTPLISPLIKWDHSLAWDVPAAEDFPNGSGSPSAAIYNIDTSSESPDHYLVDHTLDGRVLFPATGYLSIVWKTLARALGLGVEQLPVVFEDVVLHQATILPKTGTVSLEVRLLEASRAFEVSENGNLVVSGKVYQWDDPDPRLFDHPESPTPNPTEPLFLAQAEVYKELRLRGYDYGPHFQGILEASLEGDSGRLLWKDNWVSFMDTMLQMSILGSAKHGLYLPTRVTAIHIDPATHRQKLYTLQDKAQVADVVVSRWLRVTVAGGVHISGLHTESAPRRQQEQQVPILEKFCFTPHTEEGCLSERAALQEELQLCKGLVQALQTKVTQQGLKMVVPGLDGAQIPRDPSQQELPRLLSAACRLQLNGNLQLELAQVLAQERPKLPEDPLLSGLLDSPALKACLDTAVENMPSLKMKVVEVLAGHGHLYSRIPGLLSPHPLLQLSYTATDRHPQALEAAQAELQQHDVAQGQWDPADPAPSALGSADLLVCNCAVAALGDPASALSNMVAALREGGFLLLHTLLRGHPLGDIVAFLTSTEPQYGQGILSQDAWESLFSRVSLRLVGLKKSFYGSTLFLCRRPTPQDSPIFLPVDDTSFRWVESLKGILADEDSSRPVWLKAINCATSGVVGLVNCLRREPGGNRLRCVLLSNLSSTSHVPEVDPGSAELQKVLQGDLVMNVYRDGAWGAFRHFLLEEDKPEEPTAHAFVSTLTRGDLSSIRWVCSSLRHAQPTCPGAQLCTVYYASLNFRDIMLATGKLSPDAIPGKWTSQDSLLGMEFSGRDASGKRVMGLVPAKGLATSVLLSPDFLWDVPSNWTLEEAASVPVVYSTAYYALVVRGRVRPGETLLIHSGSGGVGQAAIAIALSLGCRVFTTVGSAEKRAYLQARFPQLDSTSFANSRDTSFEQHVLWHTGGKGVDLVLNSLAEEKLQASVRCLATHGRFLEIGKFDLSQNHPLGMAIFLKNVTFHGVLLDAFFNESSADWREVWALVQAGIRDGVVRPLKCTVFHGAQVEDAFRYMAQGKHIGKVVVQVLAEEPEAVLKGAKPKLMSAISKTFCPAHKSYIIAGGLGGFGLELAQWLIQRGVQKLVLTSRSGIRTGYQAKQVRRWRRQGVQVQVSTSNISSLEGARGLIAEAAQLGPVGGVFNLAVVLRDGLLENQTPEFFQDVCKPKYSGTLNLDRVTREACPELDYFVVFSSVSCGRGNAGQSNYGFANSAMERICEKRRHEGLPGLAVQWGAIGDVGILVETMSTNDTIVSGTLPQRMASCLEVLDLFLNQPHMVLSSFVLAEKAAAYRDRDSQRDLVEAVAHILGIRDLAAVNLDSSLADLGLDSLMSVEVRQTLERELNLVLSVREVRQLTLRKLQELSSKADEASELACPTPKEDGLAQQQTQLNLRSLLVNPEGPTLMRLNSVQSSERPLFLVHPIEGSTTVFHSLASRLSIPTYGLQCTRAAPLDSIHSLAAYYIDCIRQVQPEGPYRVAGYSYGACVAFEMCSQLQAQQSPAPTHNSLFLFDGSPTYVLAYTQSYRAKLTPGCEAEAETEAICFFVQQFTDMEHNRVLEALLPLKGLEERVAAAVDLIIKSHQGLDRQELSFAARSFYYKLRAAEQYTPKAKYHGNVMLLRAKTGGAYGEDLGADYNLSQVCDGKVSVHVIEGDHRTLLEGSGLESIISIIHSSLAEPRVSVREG
Description: After 20 minutes incubation at room temperature the plate was measured again (T2).
The decrease in absorbance was calculated as (Absorbance before incubation T1)−(Absorbance following incubation T2).
A plot of Controlmin versus test compound concentration was fitted to a 4-parameter logistic curve using a non-linear least squares regression method.
Assay [5] deals with A2780 ovarian cells. Description: A2780 ovarian cell proliferation assay in lipid reduced medium, with palmitate (MTT). It is filed as cell-based. The settings on record: Homo sapiens, A2780, 96 h; read-out: pIC50 A2780 Ovarian Cell, With Palmitate (converted). In outline: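 Seeded cells were switched next day to lipid-reduced serum, exposed to compound and 25 μM palmitate complexed with fatty-acid-free BSA, and incubated 96 h. Proliferation was then determined by MTT absorbance at 544 nm, with a best-fit curve of signal against concentration.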

Assay [6] addresses T1, hFASN enzyme (full length) (Homo sapiens, UniProt P49327).
T1 construct: 10 μL hFASN enzyme (full length, 300 ng, purified in house); made in house
Description: Fatty Acid Synthase (FASN) inhibition scintillation proximity assay. Format: biochemical. The settings on record: for inhibition at 10 µM: read-out: Human FASN % inhibition @ 10 μM, 10 μM test compound; for IC50: read-out: Human FASN pIC50 (converted). In outline:
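Compounds at 0.01–30 μM were mixed with 300 ng purified full-length enzyme in 100 mM KH2PO4 pH 7.5, 1 mM DTT. Substrates ³H-acetyl-CoA and malonyl-CoA were then converted, and bead addition stopped the reaction. Signal was normalised to low and high plate controls and fitted by 4-parameter nonlinear regression.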

Some results are limits rather than exact numbers.

T1 sequence (P49327 whole entry): as the sequence (P49327 whole entry, the tested form may be a part) above

Take `Cn1ncc2cc(-c3ccc(C4=NC5(CC5)C(=O)N4C[C@@H]4CCN(C(=O)C5(O)CC5)C4)c(F)c3)ccc21` [compound 370, (R)-5-(2-fluoro-4-(1-methyl-1H-indazol-5-yl)phenyl)-6-((1-(1-hydroxycyclopropanecarbonyl)pyrrolidin-3-yl)methyl)-4,6-diazaspiro[2.4]hept-4-en-7-one]: the IC50 in assay [1] is approximately 3.89 nM; with A2780 ovarian cells [2], approximately 2.4 nM; in assay [3] it was 20.4 nM; in assay [4], 40.7 nM; in the assay on A2780 ovarian cells [5], more than 10000 nM; in assay [6], 28.8 nM. The inhibition at 10 µM in assay [6] worked out at 100%.
As for `Cn1nccc1-c1ccc(-c2ccc(C3=NC4(CC4)C(=O)N3C[C@@H]3CCN(C(=O)C4(O)CC4)C3)c(F)c2)cc1` [compound 371, (R)-5-(3-fluoro-4′-(1-methyl-1H-pyrazol-5-yl)-[1,1′-biphenyl]-4-yl)-6-((1-(1-hydroxycyclopropanecarbonyl)pyrrolidin-3-yl)methyl)-4,6-diazaspiro[2.4]hept-4-en-7-one], the IC50 was 55 nM in assay [1]; 72.4 nM in the assay on A2780 ovarian cells [2]; 490 nM in assay [3]; 129 nM in assay [4]; 8130 nM in the assay with A2780 ovarian cells [5]; 56.2 nM in assay [6]. The inhibition at 10 µM in assay [6] is 101%.
`O=C(N1CC(CN2C(=O)C3(CC3)N=C2c2ccc(-c3ccc4ccccc4c3)cc2F)C1)C1(O)CC1` [compound 372, 5-(2-fluoro-4-(naphthalen-2-yl)phenyl)-6-((1-(1-hydroxycyclopropanecarbbonyl)azetidin-3-yl)methyl)-4,6-diazaspiro[2.4]hept-4-en-7-one]: the IC50 in assay [1] was 13.2 nM; in the assay on A2780 ovarian cells [2] it was 5.01 nM; in assay [3], 75.9 nM; in assay [4], 49 nM; in the assay on A2780 ovarian cells [5], more than 10000 nM; in assay [6], 16.2 nM. In addition, the inhibition at 10 µM in assay [6] is 101%.
Regarding `O=C(N1CC(CN2C(=O)C3(CC3)N=C2c2ccc(-c3ccc4cccc(F)c4c3)cc2F)C1)C1(O)CC1` [compound 374, 5-(2-fluoro-4-(8-fluoronaphthalen-2-yl)phenyl)-6-((1-(1-hydroxycyclopropanecarbonyl)azetidin-3-yl)methyl)-4,6-diazaspiro[2.4]hept-4-en-7-one], the IC50 is 20.4 nM in assay [1]; 10 nM in the assay on A2780 ovarian cells [2]; 87.1 nM in assay [3]; 35.5 nM in assay [4]; more than 10000 nM in the assay with A2780 ovarian cells [5]; 25.7 nM in assay [6]. Besides, the inhibition at 10 µM in assay [6] is 99%.
In the case of `COc1cccc2ccc(-c3ccc(C4=NC5(CC5)C(=O)N4CC4CN(C(=O)C5(O)CC5)C4)c(F)c3)cc12` [compound 375, 5-(2-fluoro-4-(8-methoxynaphthalen-2-yl)phenyl)-6-((1-(1-hydroxycyclopropanecarbonyl)azetidin-3-yl)methyl)-4,6-diazaspiro[2.4]hept-4-en-7-one], the IC50 in assay [1] was 77.6 nM; in the assay on A2780 ovarian cells [2], 72.4 nM; in assay [3], 457 nM; in assay [4], 89.1 nM; in the assay with A2780 ovarian cells [5], more than 10000 nM; in assay [6], 43.7 nM. Besides, the inhibition at 10 µM in assay [6] is 103%.
`Cn1cnc2cc(-c3ccc(C4=NC5(CC5)C(=O)N4CC4CN(C(=O)C5(O)CC5)C4)c(F)c3)ccc21` [compound 377, 5-(2-fluoro-4-(1-methyl-1H-benzo[d]imidazol-5-yl)phenyl)-6-((1-(1-hydroxycyclopropanecarbonyl)azetidin-3-yl)methyl)-4,6-diazaspiro[2.4]hept-4-en-7-one]: the IC50 in assay [1] was 28.2 nM; in the assay with A2780 ovarian cells [2], 22.9 nM; in assay [3], 81.3 nM; in assay [4] it was approximately 36.3 nM; in the assay on A2780 ovarian cells [5], more than 10000 nM; in assay [6] it was 35.5 nM. Besides, the inhibition at 10 µM in assay [6] stood at 100%.

Values taken from patent US10077261B2, “Imidazolin-5-one derivative useful as FASN inhibitors for the treatment of cancer” (Janssen Pharmaceutica NV, priority 2012, dated 2018).
